Common to all, as to type: in vivo
For test [1], the system named is Elegant Lady Peach. As to the kind of experiment: Spray of trees at petal fall (BBCH stage 69), fruit set. The conditions noted are these: 1000 ppm at petal fall; at harvest. The procedure:
(§1) Trees of Lady Elana Apricot and Elegant Lady Peach were sprayed at petal fall (BBCH stage 69) with 1000 ppm ABA or left untreated (Table 5). Percent fruit set was determined at harvest. Spraying Lady Elana Apricot and Elegant Lady Peach trees with ABA reduced percent fruit set (Table 5).

The test system of test [2] is Lady Elana Apricot. The test is described as above. The settings on record: 1000 ppm at petal fall; at harvest. The protocol: as §1
For test [3], the system named is PF-27 peach trees. As to the kind of experiment: Foliar spray of peach tree limbs at shuck split stage, fruit retention. The conditions noted are these: 1000 ppm, sprayed to runoff. An excerpt: Limbs of PF-27 peach trees with fruit at the shuck split stage were flagged; the number of fruit distal to the flagging was counted. The limbs were sprayed to runoff with either water or 1000 ppm abscisic acid (S-ABA; ABA; S-(+)-abscisic acid; +-ABA, (+)-(S)-cis,trans-abscisic acid,(+)-(S)-cis,trans-ABA; S-ABA; (S)-5-(1-hydroxy-2,6,6,-trimethyl-4-oxo-2-cyclohexen-1-yl)-3-methyl-(2Z,4E)-pentadienoic acid; CAS no. 21293-29-8). After 8 and 19 days the fruit were re-counted and the percent fruit retention was determined. Limbs treated with 1000 ppm ABA retained less fruit than limbs treated with water 19 days following treatment (Table 1).

The test system of test [4] is Cacaks plum. Briefly: Spray of plum trees at petal fall (BBCH stage 69), fruit set, yield, fruit weight. The conditions noted are these: at harvest. The procedure:
Trees of Cacaks plum were sprayed at petal fall (BBCH stage 69) with 500 ppm or 1000 ppm ABA or left untreated (Table 3). Percent fruit set, average yield and average fruit weight were determined at harvest. Spraying Cacaks plum trees with ABA reduced fruit set percentage and yield per tree and increased average fruit weight (Table 3).

In test [5] the test system is Katinka plum. Described as above. The conditions noted are these: at harvest. The protocol:
Trees of Katinka plum were sprayed at petal fall (BBCH stage 69) with 500 ppm or 1000 ppm ABA or left untreated (Table 4). Percent fruit set, average yield and average fruit weight were determined at harvest. Spraying Katinka plum trees with ABA reduced fruit set percentage and yield per tree and increased average fruit weight (Table 4).

Test [6] relates to Cacaks Schone plum. As to the kind of experiment: Spray of plum trees at fruitlet set stage, fruit set and fruit size. The settings on record: 600 ppm at fruitlet set stage. The protocol:
(§2) Trees of Cacaks Schone plum and Katinka plum were sprayed with 600 ppm ABA at the fruitlet set stage or left untreated. The number of fruit per flower was determined after the normal fruit drop period had ended. At harvest the weight per 100 fruits was measured for both the ABA treated and the untreated trees. Spraying Cacaks Schone or Katinka plum trees with ABA at the fruitlet set stage reduced the number of fruits per flower and increased the average fruit weight compared to untreated trees (Table 2).

For test [7], the system named is Katinka plum. Described as above. The settings on record: 600 ppm at fruitlet set stage. The procedure: as §2
Test [8] has as its system European seedless cucumber (var. Flamingo) plants. As to the kind of experiment: Foliar spray of greenhouse cucumber plants, fruit abortion. The settings on record: 100 ppm, sprayed to drip at 20 node growth stage. The procedure:
European seedless cucumber (var. Flamingo) plants were grown in a greenhouse. At the 20 node growth stage the plants were sprayed to drip with ABA (100 ppm) solution or left unsprayed (control). ABA treated plants had twice the rate of fruit abortion compared to the control plants (Table 6).

Regarding “(S)-5-(1-hydroxy-2,6,6,-trimethyl-4-oxo-2-cyclohexen-1-yl)-3-methyl-(2Z,4E)-pentadienoic acid [ABA]”, the “% Fruit set” value in test [1] is reported as 36%; in test [2], 33%; in test [4] (500 ppm at petal fall), 20%; in test [4] (1000 ppm at petal fall) it was 11%; in test [5] (500 ppm at petal fall) it was 28%; in test [5] (1000 ppm at petal fall) it was 21%. Further, the percent fruit retention in test [3] (8 days after treatment) worked out at 97%; in test [3] (19 days after treatment), 69%. The Fruit weight came out at 14.5 g in test [4] (500 ppm at petal fall), 14.6 g in test [4] (1000 ppm at petal fall), 26.2 g in test [5] (500 ppm at petal fall) and 28.0 g in test [5] (1000 ppm at petal fall). The Yield amounted to 8.0 kg/tree in test [4] (500 ppm at petal fall), 7.0 kg/tree in test [4] (1000 ppm at petal fall), 4.2 kg/tree in test [5] (500 ppm at petal fall) and 4.4 kg/tree in test [5] (1000 ppm at petal fall). Besides, the figures for the Fruit/flower in test [6] (after normal fruit drop period) and in test [7] (after normal fruit drop period) were 0.09 and 0.45, respectively. Moreover, the 100 fruit weight was 2.23 kg in test [6] (at harvest) and 2.35 kg in test [7] (at harvest). Moreover, the “Percentage of basal 18 cucumber fruits per plant that aborted” value in test [8] stood at 68%. For the same substance, the “rate of fruit abortion compared to the control plants” value in test [8] is on record as “twice”.

The record behind these values is patent US20080227644A1, “Use of abscisic acid to control fruiting” (priority 2007, published 2008).
